The results in this text go back to patent US20130266649A1, “NOVEL PHARMACEUTICAL COMPOSITION” (priority 2010, published 2013).

Entries after “also recorded” stand apart in the source; their conditions may differ.

Data set [1] can be described thus: Photostability: light exposure of tablets in Petri dish (ICH Q1B), impurities by HPLC. It counts as physicochemical. The method, then: Uncoated tablets, 0.5, 1 and 2 mg were exposed to ICH Photostability conditions and tested to provide baseline impurity information for comparison.
Data set [2] can be described thus: Solubility of Compound B compared with Compound A. It counts as physicochemical. The source says:
Experiments were undertaken to determine the acceptable level of the desolvated Compound B in a pharmaceutical dosage form and the appropriate formulation techniques.

As for `CC(=O)Nc1cccc(-n2c(=O)n(C3CC3)c(=O)c3c(Nc4ccc(I)cc4F)n(C)c(=O)c(C)c32)c1` [Compound A, N-{3-[3-cyclopropyl-5-(2-fluoro-4-iodo-phenylamino)-6,8-dimethyl-2,4,7-trioxo-3,4,6,7-tetrahydro-2H-pyrido[4,3-d]pyrimidin-1-yl]phenyl}acetamide dimethyl sulfoxide solvate], the photo-stability entry in data set [1] was “sensitive to photo-induced degradation”.
Turning to `CC(=O)Nc1cccc(-n2c(=O)n(C3CC3)c(=O)c3c(Nc4ccc(I)cc4F)n(C)c(=O)c(C)c32)c1` [Compound B, N-{3-[3-cyclopropyl-5-(2-fluoro-4-iodo-phenylamino)-6,8-dimethyl-2,4,7-trioxo-3,4,6,7-tetrahydro-2H-pyrido[4,3-d]pyrimidin-1-yl]phenyl}acetamide], the “solubility compared with Compound A” value in data set [2] is “significantly less soluble; also recorded: much less soluble”.
